Test results reported in patent US20130130992A1, “DIPEPTIDE DERIVATIVE FOR THE TREATMENT OF CANCER” (ONCOTEST GMBH, priority 2010, published 2013).

Columns and labels:
Format in all cases: cell-based
[1] = test system: panel of 40 human tumor cell lines; assay: Monolayer propidium iodide assay, whole panel
Text: (§1) Oncotest GmbH, Germany's proprietary tumor cell line panel comprises 40 cell lines. These cell lines were derived from 15 different tumor histotypes, each represented by 1 to 6 different cell lines. Cell lines were established from cancer of the bladder (3), colon (4), head and neck (1), lung (6), breast (3), pancreas (3), prostate (4), ovary (2), kidney (3), liver (1), stomach (1) and the uteri body (1), as well as from melanoma (3), sarcoma (2) and pleuramesothelioma (3). Out of these 40 cell lines, 24 cell lines were established at Oncotest, from patient-derived tumor xenografts. The other 16 cell lines were either provided by the NCl (Bethesda; MD, USA) or were purchased from ATCC (Rockville, Md., USA) or DSMZ (Braunschweig, Germany).
Cell lines were routinely passaged once or twice weekly and maintained in culture for upto 20 passages. All the cells were grown at 37° C. in a humidified atmosphere with 5% (Carbon Dioxide) CO2 in RPMI 1640 medium supplemented with 10% (v/v) fetal calf serum (FCS) and 0.1 mg/ml gentamicin (medium and all other components from PAA, Colbe, Germany). Authenticity of all cell lines was proven by STR (short tandem repeat) analysis, a PCR based DNA-fingerprinting methodology.
Stock solutions of the compound of formula (1) (3.3 mM in DMSO) were prepared and stored in small aliquots (200 μl) at −20° C. An aliquot of the stock solution was thawed on the day of use and stored at room temperature prior to and during dosing. The subsequent dilutions were done with complete RPMI 1640 cell culture medium as follows: the stock solution was diluted 1:22 followed by serial dilutions finally resulting in a (compared to the test concentration) 15-fold higher concentration. For the final dilution step (1:15), 10 μl/well of the solution was directly added to 140 μl/well culture medium. Compound of formula (1) [also referred as test compound] was tested at 0.00032, 0.001, 0.0032, 0.01, 0.032, 0.1, 0.32, 1, 3.2 and 10 μM. Each concentration was evaluated in triplicate.
A modified Propidium Iodide assay was used to assess the effect of the compound of formula (1) on the growth of the human tumor cell lines and was designed as in reference, Anti-cancer Drugs, 6, 522-532, (1995), the disclosure of which is incorporated by reference for the teaching of the assay.
Cells were plated in 96-well flat-bottom microtiter plates at a cell density of 4,000 to 20,000 cells/well. After a 24 hr recovery period to allow the cells to resume exponential growth, the compound of formula (1) was applied at 10 concentrations in half-log increments in triplicates and treatment continued for 4 days. After 4 days of treatment, cells were next washed with 200 μl phosphate buffer solution (PBS) to remove dead cells, then 200 μl of a solution containing 7 μg/ml propidium iodide (PI) and 0.1% (v/v) Triton X-100 were added to the wells. After an incubation period of 1-2 hours at room temperature, fluorescence (FU) was measured using the Cytofluor 4000 microplate reader (excitation λ=530 nm, emission λ=620 nm) to quantify the amount of attached viable cells. Pharmacological effects on cell proliferation and survival were expressed as Test/Control×100 (% T/C) values, with T and C representing the fluorescence read-outs for wells with and without test compound, respectively, i.e. T/C represents the ratio of viable cell numbers following incubation of cell line with and without test compound. Based on the T/C values, relative IC50 values were determined by non-linear regression (log [conc. of inhibitor] versus response (% T/C)) using the GraphPad Prism® analysis software (Prism 5 for Windows, version 5.01, GraphPad Software Inc., CA). For calculation of mean IC50 values over the 40 cell lines as tested, the geometric mean was selected. If Graph Pad Prism could not calculate reliable IC50 values by non-linear regression, the IC50 value was estimated by visual inspection of the concentration-effect curve.

HNXF CAL 27 = assay: Monolayer propidium iodide assay, HNXF CAL 27; settings: Homo sapiens, 96 h; HNXF CAL 27, Head and Neck; 4 days of treatment
Text: as §1, with “The other 16 cell lines were either provided by the NCl (Bethesda; MD, USA) or were purchased from ATCC (Rockville, Md., USA) or DSMZ (Braunschweig, Germany).” left out
(§2) Stock solutions of the compound of formula (1) (3.3 mM in DMSO) were prepared and stored in small aliquots (200 μl) at −20° C. […] Each concentration was evaluated in triplicate. […]
(§3) Cells were plated in 96-well flat-bottom microtiter plates at a cell density of 4,000 to 20,000 cells/well. […] After an incubation period of 1-2 hours at room temperature, fluorescence (FU) was measured using the Cytofluor 4000 microplate reader (excitation λ=530 nm, emission λ=620 nm) to quantify the amount of attached viable cells. […] Based on the T/C values, relative IC50 values were determined by non-linear regression (log [conc. of inhibitor] versus response (% T/C)) using the GraphPad Prism® analysis software (Prism 5 for Windows, version 5.01, GraphPad Software Inc., CA). […]

MAXF 401NL = assay: Monolayer propidium iodide assay, MAXF 401NL; settings: Homo sapiens, 96 h, Mammary, 4 days of treatment
Text: as §1, with “The other 16 cell lines were either provided by the NCl (Bethesda; MD, USA) or were purchased from ATCC (Rockville, Md., USA) or DSMZ (Braunschweig, Germany).” left out
as §2, §3

OVXF OVCAR3 = assay: Monolayer propidium iodide assay, OVXF OVCAR3; settings: Homo sapiens, OVCAR-3, 96 h; OVXF OVCAR3, Ovarian; 4 days of treatment
Text: as §1, with “The other 16 cell lines were either provided by the NCl (Bethesda; MD, USA) or were purchased from ATCC (Rockville, Md., USA) or DSMZ (Braunschweig, Germany).” left out
as §2, §3

CXF HT 29 = assay: Monolayer propidium iodide assay, CXF HT 29; settings: Homo sapiens, 96 h; CXF HT 29, Colon; 4 days of treatment
Text: as §1, with “The other 16 cell lines were either provided by the NCl (Bethesda; MD, USA) or were purchased from ATCC (Rockville, Md., USA) or DSMZ (Braunschweig, Germany).” left out
as §2, §3

CXF RKO = assay: Monolayer propidium iodide assay, CXF RKO; settings: Homo sapiens, 96 h, Colon, 4 days of treatment
Text: as §1, with “The other 16 cell lines were either provided by the NCl (Bethesda; MD, USA) or were purchased from ATCC (Rockville, Md., USA) or DSMZ (Braunschweig, Germany).” left out
as §2, §3

MEXF 1341L = assay: Monolayer propidium iodide assay, MEXF 1341L; settings: Homo sapiens, 96 h, Melanoma, 4 days of treatment
Text: as §1, with “The other 16 cell lines were either provided by the NCl (Bethesda; MD, USA) or were purchased from ATCC (Rockville, Md., USA) or DSMZ (Braunschweig, Germany).” left out
as §2, §3

PAXF 546L = assay: Monolayer propidium iodide assay, PAXF 546L; settings: Homo sapiens, 96 h, Pancreas, 4 days of treatment
Text: as §1, with “The other 16 cell lines were either provided by the NCl (Bethesda; MD, USA) or were purchased from ATCC (Rockville, Md., USA) or DSMZ (Braunschweig, Germany).” left out
as §2, §3

MAXF MDA 231 = assay: Monolayer propidium iodide assay, MAXF MDA 231; settings: Homo sapiens, MDA-MB-231, 96 h; MAXF MDA 231, Mammary; 4 days of treatment
Text: as §1, with “The other 16 cell lines were either provided by the NCl (Bethesda; MD, USA) or were purchased from ATCC (Rockville, Md., USA) or DSMZ (Braunschweig, Germany).” left out
as §2, §3

PRXF PC3M = assay: Monolayer propidium iodide assay, PRXF PC3M; settings: Homo sapiens, PC-3M, 96 h, Prostate, 4 days of treatment
Text: as §1, with “The other 16 cell lines were either provided by the NCl (Bethesda; MD, USA) or were purchased from ATCC (Rockville, Md., USA) or DSMZ (Braunschweig, Germany).” left out
as §2, §3

CCCC1CCCCCC(O)CC(=O)NC2CSSCC(NC2=O)C(=O)O1 (centres unmarked) [compound of formula (1)]
Tumor selectivity: number of cell lines with individual IC50 < mean IC50 ([1]; Lung): 5/6 | Tumor selectivity: number of cell lines with individual IC50 < mean IC50 ([1]; Melanoma): 0/3 | Tumor selectivity: number of cell lines with individual IC50 < mean IC50 ([1]; Pancreas): 3/3 | Tumor selectivity: number of cell lines with individual IC50 < mean IC50 ([1]; Pleurameso): 1/3 | Tumor selectivity: number of cell lines with individual IC50 < mean IC50 ([1]; Prostate): 2/4 | IC50 (HNXF CAL 27): 39 nM | IC50 (MAXF 401NL): 64 nM | IC50 (OVXF OVCAR3): 195 nM | IC50 (CXF HT 29): 137 nM | IC50 (CXF RKO): 74 nM | IC50 (MEXF 1341L): 102 nM | IC50 (PAXF 546L): 16 nM | IC50 (MAXF MDA 231): 90 nM | IC50 (PRXF PC3M): 47 nM
